In patent US20240246942A1, “KINASE INHIBITORS FOR THE TREATMENT OF NEURODEGENERATIVE DISEASES” (priority 2020, published 2024):
Like-named read-outs stand apart in the source and are kept apart here.

Key:
Experiment in all cases: biochemical
[1] = molecular target: T1, panel of 374 wild-type kinases (Homo sapiens, UniProt Q9NRM7); conditions: read-out: % Enzyme Activity (relative to DMSO controls), LATS2
T1 construct: purchased Reaction Biology Corporation
T1 sequence (Q9NRM7 1-1088): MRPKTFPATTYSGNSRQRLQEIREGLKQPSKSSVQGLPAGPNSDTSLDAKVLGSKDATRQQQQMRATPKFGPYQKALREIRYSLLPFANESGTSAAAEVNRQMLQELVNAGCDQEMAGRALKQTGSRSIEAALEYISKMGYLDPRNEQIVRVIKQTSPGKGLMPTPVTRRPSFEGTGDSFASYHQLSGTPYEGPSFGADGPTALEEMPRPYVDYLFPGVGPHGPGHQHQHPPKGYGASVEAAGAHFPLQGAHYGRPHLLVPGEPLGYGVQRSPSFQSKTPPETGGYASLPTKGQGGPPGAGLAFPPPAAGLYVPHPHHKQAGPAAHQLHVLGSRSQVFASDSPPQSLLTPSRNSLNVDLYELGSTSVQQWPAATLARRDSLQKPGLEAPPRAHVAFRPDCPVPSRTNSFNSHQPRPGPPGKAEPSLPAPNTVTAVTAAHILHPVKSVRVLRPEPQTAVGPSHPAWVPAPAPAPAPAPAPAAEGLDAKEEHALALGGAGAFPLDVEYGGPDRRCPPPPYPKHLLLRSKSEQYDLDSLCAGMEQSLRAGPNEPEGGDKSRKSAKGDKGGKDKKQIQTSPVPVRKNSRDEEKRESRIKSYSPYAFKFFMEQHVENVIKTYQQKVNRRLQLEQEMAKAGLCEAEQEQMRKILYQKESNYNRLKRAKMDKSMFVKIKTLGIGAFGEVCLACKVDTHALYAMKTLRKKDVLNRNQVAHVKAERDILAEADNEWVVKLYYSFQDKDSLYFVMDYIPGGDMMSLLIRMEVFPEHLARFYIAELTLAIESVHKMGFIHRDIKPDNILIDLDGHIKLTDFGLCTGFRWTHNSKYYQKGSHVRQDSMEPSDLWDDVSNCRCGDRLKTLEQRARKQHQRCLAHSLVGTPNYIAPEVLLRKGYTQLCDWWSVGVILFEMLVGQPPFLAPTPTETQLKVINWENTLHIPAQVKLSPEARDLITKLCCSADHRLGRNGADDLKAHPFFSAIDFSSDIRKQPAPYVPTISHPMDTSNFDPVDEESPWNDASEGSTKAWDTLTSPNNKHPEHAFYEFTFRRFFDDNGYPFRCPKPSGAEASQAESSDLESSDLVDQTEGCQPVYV

[2] = molecular target: T2, panel of 374 wild-type kinases (Homo sapiens, UniProt Q9UQB9); conditions: read-out: % Enzyme Activity (relative to DMSO controls), Aurora C
T2 construct: purchased Reaction Biology Corporation
T2 sequence (Q9UQB9 1-309): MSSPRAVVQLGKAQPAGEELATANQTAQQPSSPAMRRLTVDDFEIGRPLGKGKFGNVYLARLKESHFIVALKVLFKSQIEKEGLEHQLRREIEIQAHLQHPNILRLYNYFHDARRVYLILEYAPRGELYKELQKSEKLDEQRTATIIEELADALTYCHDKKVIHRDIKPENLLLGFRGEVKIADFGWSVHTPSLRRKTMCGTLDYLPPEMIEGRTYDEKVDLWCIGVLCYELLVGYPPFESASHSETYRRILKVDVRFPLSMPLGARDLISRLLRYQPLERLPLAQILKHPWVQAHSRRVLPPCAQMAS

[3] = molecular target: T3, panel of 374 wild-type kinases (Homo sapiens, UniProt P06239); conditions: read-out: % Enzyme Activity (relative to DMSO controls), LCK
T3 construct: purchased Reaction Biology Corporation

[4] = molecular target: T4, panel of 374 wild-type kinases (Homo sapiens, UniProt P57059)
T4 construct: purchased Reaction Biology Corporation

[5] = molecular target: T5, panel of 374 wild-type kinases (Homo sapiens, UniProt O00444); conditions: read-out: % Enzyme Activity (relative to DMSO controls), kinase PLK4/SAK
T5 construct: purchased Reaction Biology Corporation
T5 sequence (O00444 1-970): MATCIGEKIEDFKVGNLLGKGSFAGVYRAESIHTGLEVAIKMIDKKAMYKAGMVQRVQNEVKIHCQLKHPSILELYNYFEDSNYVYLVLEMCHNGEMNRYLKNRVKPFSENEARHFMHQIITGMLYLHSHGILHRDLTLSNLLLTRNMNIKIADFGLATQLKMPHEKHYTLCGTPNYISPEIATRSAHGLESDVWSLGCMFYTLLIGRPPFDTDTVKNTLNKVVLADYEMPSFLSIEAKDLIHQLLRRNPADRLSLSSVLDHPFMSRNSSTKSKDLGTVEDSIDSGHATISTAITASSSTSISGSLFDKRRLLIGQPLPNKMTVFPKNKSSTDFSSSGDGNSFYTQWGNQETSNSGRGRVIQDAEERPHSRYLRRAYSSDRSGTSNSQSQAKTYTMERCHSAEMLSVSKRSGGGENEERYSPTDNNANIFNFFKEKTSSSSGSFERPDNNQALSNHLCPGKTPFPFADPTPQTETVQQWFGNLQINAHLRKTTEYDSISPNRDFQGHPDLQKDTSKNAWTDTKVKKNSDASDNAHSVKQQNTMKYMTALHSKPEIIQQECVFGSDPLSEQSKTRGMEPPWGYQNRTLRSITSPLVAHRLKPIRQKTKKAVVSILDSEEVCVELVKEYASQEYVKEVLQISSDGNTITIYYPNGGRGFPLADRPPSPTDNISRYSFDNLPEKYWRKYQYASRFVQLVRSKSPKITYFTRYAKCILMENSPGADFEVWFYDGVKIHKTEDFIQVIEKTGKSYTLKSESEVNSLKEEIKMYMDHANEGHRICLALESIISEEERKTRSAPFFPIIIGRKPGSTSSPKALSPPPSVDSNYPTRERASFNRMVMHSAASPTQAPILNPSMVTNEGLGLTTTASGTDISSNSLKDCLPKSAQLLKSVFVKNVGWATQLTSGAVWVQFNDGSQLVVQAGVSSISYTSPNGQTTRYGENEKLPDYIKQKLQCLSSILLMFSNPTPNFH

T4 sequence (P57059 whole entry): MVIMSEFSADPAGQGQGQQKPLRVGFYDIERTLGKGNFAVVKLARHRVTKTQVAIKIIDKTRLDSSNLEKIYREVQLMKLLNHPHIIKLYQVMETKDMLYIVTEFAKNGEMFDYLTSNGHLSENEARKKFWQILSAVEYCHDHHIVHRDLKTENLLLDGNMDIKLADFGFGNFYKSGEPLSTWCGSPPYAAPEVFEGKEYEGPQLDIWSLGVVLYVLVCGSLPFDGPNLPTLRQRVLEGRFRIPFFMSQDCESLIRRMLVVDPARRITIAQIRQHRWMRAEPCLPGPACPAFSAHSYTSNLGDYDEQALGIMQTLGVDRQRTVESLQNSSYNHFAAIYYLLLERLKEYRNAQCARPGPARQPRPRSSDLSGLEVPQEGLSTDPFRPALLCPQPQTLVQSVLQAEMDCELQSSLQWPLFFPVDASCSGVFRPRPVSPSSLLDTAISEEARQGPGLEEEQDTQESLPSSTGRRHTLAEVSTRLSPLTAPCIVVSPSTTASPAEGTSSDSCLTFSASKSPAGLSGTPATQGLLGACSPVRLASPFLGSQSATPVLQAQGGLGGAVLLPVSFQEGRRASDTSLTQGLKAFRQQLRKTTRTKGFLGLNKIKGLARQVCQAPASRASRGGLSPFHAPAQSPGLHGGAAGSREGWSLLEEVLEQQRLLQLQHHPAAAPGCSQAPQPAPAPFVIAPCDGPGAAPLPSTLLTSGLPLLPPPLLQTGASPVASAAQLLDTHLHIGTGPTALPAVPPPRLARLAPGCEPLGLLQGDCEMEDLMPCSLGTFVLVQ
T3 sequence (P06239 whole entry): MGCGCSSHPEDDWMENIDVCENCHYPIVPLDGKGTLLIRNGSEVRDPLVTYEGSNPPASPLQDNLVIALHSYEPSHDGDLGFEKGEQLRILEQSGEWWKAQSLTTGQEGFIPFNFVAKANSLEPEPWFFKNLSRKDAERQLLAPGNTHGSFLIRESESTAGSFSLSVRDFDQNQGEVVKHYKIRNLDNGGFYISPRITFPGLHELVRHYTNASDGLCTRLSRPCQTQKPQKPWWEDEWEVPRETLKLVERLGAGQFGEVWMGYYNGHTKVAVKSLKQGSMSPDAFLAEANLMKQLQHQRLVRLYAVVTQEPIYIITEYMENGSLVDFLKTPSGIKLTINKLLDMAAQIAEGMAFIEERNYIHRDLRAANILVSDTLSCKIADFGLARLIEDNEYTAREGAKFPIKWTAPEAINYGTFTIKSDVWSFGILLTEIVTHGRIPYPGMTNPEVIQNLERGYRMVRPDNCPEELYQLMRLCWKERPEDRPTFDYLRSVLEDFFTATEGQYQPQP

## O=C(Nc1cnn(-c2csc(C(=O)NC3COC3)c2)c1)Nc1c(F)cccc1Cl [Compound 25, 4-(4-(3-(2-chloro-6-fluorophenyl)ureido)-1H-pyrazol-1-yl)-N-(oxetan-3-yl)thiophene-2-carboxamide]
[1]
  remaining activity at 5 µM: 104%
[2]
  remaining activity at 5 µM: 58.5%
[3]
  remaining activity at 5 µM: 94.2%
[4]; kinase SIK1, read-out: % Enzyme Activity (relative to DMSO controls)
  remaining activity at 5 µM: 98.3%
[5]
  remaining activity at 5 µM: 84.3%

## O=C(Nc1cnn(-c2csc(C(=O)NC3COC3)c2)c1)Nc1ccccc1Cl [Compound 17, 4-(4-(3-(2-chlorophenyl)ureido)-1H-pyrazol-1-yl)-N-(oxetan-3-yl)thiophene-2-carboxamide]
[1]
  remaining activity at 5 µM: 96%
[2]
  remaining activity at 5 µM: 104%
[3]
  remaining activity at 5 µM: 99.1%
[4]; read-out: % Enzyme Activity (relative to DMSO controls), kinase SIK1
  remaining activity at 5 µM: 102%
[5]
  remaining activity at 5 µM: 88.2%

## Cc1sc(C(=O)NC2COC2)cc1-n1cc(NC(=O)Nc2c(F)cccc2Cl)cn1 [Compound 27, 4-(4-(3-(2-chloro-6-fluorophenyl)ureido)-1H-pyrazol-1-yl)-5-methyl-N-(oxetan-3-yl)thiophene-2-carboxamide]
[1]; 10 uM
  remaining activity at 10 µM: 94.7%
[2]; 10 uM
  remaining activity at 10 µM: 104%
[3]; 10 uM
  remaining activity at 10 µM: 46.5%
[4]; read-out: % Enzyme Activity (relative to DMSO controls), kinase SIK1, 10 uM
  remaining activity at 10 µM: 99.8%
[5]; 10 uM
  remaining activity at 10 µM: 100%
